Source: EP4631938A1, “NITROGEN-CONTAINING HETEROCYCLE WITH SEROTONIN RECEPTOR-BINDING ACTIVITY AND CARBOCYCLIC DERIVATIVE” (Shionogi & Co., Ltd, priority 2022, dated 2024)
pKi: −log10 of the molar value.

What was measured:
[1] = molecular target: T1, human recombinant 5-HT2A receptor (Homo sapiens, UniProt P28223); assay: Test Example 1-2: 5-HT2A receptor binding inhibition test ([3H]-Ketanserin; non-specific ligand Ketanserin); settings: [3H]-Ketanserin; non-specific binding with 500 µmol/L Ketanserin; room temperature (25°C), 1.5 hours; read-out: h 5-HT2A Ki
T1 construct: expressed in transfected cells; host or cells: Jump-In HEK cells (membrane preparation)
T1 sequence (P28223 whole entry): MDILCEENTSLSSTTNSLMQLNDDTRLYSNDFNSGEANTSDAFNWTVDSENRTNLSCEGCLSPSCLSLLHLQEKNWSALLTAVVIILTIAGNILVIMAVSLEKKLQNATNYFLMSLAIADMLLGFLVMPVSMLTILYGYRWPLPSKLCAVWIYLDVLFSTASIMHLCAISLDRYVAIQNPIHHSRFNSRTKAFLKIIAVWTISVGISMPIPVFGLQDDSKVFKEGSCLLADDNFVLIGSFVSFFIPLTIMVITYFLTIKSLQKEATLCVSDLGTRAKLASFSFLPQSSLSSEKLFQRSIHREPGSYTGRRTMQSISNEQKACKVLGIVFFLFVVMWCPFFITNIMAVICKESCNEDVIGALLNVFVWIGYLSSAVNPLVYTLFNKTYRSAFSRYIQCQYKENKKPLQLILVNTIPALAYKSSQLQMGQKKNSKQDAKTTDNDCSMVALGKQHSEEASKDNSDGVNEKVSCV
Protocol: The Kd value is calculated when the lot of the cell membrane is changed. 1 mmol/L non-specific binding calculating compound dissolved in DMSO or DMSO is previously dispensed to the microplate by 0.5 µL, and the cell membrane is diluted with an Assay buffer. The radioactive ligand solution is diluted step by step, and counts are checked with a liquid scintillator. The Assay buffer containing diluted cell membranes is dispensed by 50 µL/well into the microplate. The radioactive ligand solution is then dispensed by 50 µL/well into the microplate and the plate is sealed. The microplate is allowed to stand for 1.5 hours at room temperature (25°C). During this time, 50 mmol/L Tris-HCl (pH 7.4) is dispensed by 50 µL/well into the UniFilter plate and allowed to stand at 4°C for 1 hour or longer. Thereafter, filtration is performed with a Cell Harvester (PerkinElmer). The radioactive ligand solution is dispensed by 10 µL/well into empty wells of the UniFilter plate. After drying the UniFilter plate at room temperature, MicroScinti20 is dispensed by 50 µL/well into the UniFilter plate, and the plate is sealed. UniFilter plate is allowed to stand at room temperature overnight. The radioactivity of [^3H]-Ketanserin bound to the 5-HT2A receptor is measured using Microbeta2 (PerkinElmer) at a measurement time of 1 min/well. The Saturation curve is drawn from the measured value, and the Kd value is calculated from the slope of the Scatchard Plot.
A compound solution dissolved in DMSO is dispensed to a microplate by 0.5 µL, and a cell membrane and a hot ligand are each diluted with an Assay buffer. The Assay buffer containing diluted cell membrane is then dispensed by 50 µL/well into the microplate. The radioactive ligand solution is then dispensed by 50 µL/well into the microplate and the plate is sealed. Thereafter, the microplate is allowed to stand at room temperature (25°C) for 1.5 hours. During this time, 50 mmol/L Tris-HCl (pH 7.4) is dispensed by 50 µL/well into the UniFilter plate and allowed to stand at 4°C for 1 hour or longer. Thereafter, filtration is performed with a Cell Harvester (PerkinElmer). After drying the UniFilter plate at room temperature, MicroScinti20 is dispensed by 50 µL/well into the UniFilter plate, and the plate is sealed. UniFilter plate is allowed to stand at room temperature overnight. The radioactivity of [^3H]-Ketanserin bound to the 5-HT2A receptor is measured using Microbeta2 (PerkinElmer) at a measurement time of 1 min/well. Non-specific binding is calculated from the radioactivity of [^3H]-Ketanserin in the presence of 500 µmol/L Ketanserin of unlabeled ligand, and total binding is calculated from the radioactivity of [^3H]-Ketanserin in the absence of the compound of the present invention (Vehicle). Finally, the Ki value is calculated from the dose-response curve.
(§1) (The binding activity of the compound according to the present invention is calculated from the following binding inhibition rate (%).) Inhibition rate (%) = [1−(c−a)/(b−a)] × 100 [formula] • a; average cpm of non-specific binding • b; average cpm of total binding • c; cpm in the presence of the test compound
(§2) The compounds of the present invention were tested essentially as described above.

[2] = molecular target: T2, human recombinant 5-HT2C receptor (Homo sapiens, UniProt P28335); assay: Test Example 2: 5-HT2C receptor binding inhibition test ([3H]-Mesulergine; non-specific ligand Serotonin HCl); settings: human serotonin 5-HT2C receptor binding activity
T2 construct: expressed in transfected cells; host or cells: Jump-In HEK cells (membrane preparation)
T2 sequence (P28335 33-458): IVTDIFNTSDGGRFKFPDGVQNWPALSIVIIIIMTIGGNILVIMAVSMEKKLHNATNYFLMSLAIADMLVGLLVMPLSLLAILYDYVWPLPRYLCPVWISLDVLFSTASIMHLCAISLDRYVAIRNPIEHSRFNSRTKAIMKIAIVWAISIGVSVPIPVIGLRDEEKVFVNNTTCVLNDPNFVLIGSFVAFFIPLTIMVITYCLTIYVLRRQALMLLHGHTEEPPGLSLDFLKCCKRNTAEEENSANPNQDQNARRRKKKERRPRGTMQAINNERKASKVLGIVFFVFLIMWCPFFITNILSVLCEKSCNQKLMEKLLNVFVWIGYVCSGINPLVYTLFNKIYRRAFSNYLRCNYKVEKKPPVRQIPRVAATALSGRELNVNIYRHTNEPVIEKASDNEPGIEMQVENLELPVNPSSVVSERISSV
Protocol: The Kd value is calculated when the lot of the cell membrane is changed. 1 mmol/L non-specific binding calculating compound dissolved in DMSO or DMSO is previously dispensed to the microplate by 0.5 µL, and the cell membrane is diluted with an Assay buffer. The radioactive ligand solution is diluted step by step, and counts are checked with a liquid scintillator. The Assay buffer containing diluted cell membranes is dispensed by 50 µL/well into the microplate. The radioactive ligand solution is then dispensed by 50 µL/well into the microplate and the plate is sealed. The microplate is allowed to stand at 37°C for 2 hours. During this time, 50 mmol/L Tris-HCl (pH 7.4) is dispensed by 50 µL/well into the GF/B UniFilter plate and allowed to stand at 4°C for 1 hour or longer. Thereafter, filtration is performed with a Cell Harvester (PerkinElmer). The radioactive ligand solution is dispensed by 10 µL/well into empty wells of the GF/B UniFilter plate. After drying the GF/B UniFilter plate at room temperature, MicroScinti20 is dispensed by 50 µL/well into the GF/B UniFilter plate, and the plate is sealed. GF/B UniFilter plate is allowed to stand at room temperature overnight. The radioactivity of [^3H]-Mesulergine bound to the 5-HT2C receptor is measured using Microbeta2 (PerkinElmer) at a measurement time of 1 min/well. The Saturation curve is drawn from the measured value, and the Kd value is calculated from the slope of the Scatchard Plot.
A compound solution dissolved in DMSO is dispensed to a microplate by 0.5 µL, and a cell membrane and a hot ligand are each diluted with an Assay buffer. The Assay buffer containing diluted cell membrane is then dispensed by 50 µL/well into the microplate. The radioactive ligand solution is then dispensed by 50 µL/well into the microplate and the plate is sealed. The microplate is then allowed to stand at 37°C for 2 hours. During this time, 50 mmol/L Tris-HCl (pH 7.4) is dispensed by 50 µL/well into the GF/B UniFilter plate and allowed to stand at 4°C for 1 hour or longer. Thereafter, filtration is performed with a Cell Harvester (PerkinElmer). After drying the GF/B UniFilter plate at room temperature, MicroScinti20 is dispensed by 50 µL/well into the GF/B UniFilter plate, and the plate is sealed. GF/B UniFilter plate is allowed to stand at room temperature overnight. The radioactivity of [^3H]-Mesulergine bound to the 5-HT2C receptor is measured using Microbeta2 (PerkinElmer) at a measurement time of 1 min/well. Non-specific binding is calculated from the radioactivity of [^3H]-Mesulergine in the presence of 500 µmol/L Serotonin HCl of unlabeled ligand, and total binding is calculated from the radioactivity of [^3H]-Mesulergine in the absence of the compound of the present invention (Vehicle). Finally, the Ki value is calculated from the dose-response curve.
as §1, §2

Compound | pKi [1] | pKi [2]
Cn1ncc(Br)c1-c1cc(Nc2ccc(OC3CC3)cn2)ncc1OCCO [Compound I-185] | 9.38 | 8.56
COCc1nc(C)c(-c2cc(Nc3ncc(OC(F)(F)F)cc3C)ncc2OCCO)c(C)n1 [Compound I-186] | 8.76 | 8.76
Cn1ncc(C#N)c1-c1cc(Nc2ncc(OC(F)(F)F)cc2Cl)ncc1OCCO [Compound I-187] | 9.74 | 8.54
Cn1ncc(C#N)c1-c1cc(Nc2ccc(-c3ccc(F)cc3)cn2)ncc1OCCO [Compound I-188] | 9.74 | 8.73
Cn1ncc(C#N)c1-c1cc(Nc2ccc(-c3ccc(Cl)cc3)cn2)ncc1OCCO [Compound I-189] | 9.66 | 9.18
Cn1ncc(C#N)c1-c1nc(Nc2ccc(-c3ccc(F)cc3)cn2)c(F)cc1OCCO [Compound I-190] | 9.31 | 8.04
Cn1ncc(C#N)c1-c1nc(Nc2ccc(-c3ccc(Cl)cc3)cn2)c(F)cc1OCCO [Compound I-191] | 9.33 | 8.28
COCc1nc(C)c(-c2cc(Nc3ccc(C4CC(F)(F)C4)cn3)ncc2OCCO)c(C)n1 [Compound I-192] | 8.64 | 8.04
COCc1nc(C)c(-c2nc(Nc3ccc(C4CCC4)cn3)c(F)cc2OCCO)c(C)n1 [Compound I-193] | 8.46 | 8.42
COCc1nc(C)c(-c2cc(Nc3ncc(C4CC(F)(F)C4)cc3Cl)ncc2OCCO)c(C)n1 [Compound I-195] | 8.17 | 8.68
COCc1nc(C)c(-c2cc(Nc3ncc(OC(F)(F)F)cc3OC)ncc2OCCO)c(C)n1 [Compound I-196] | 8.35 | 8.29
Cc1nc(C)c(-c2cc(Nc3ncc(C(F)(F)F)cc3F)c(F)cc2OC[C@H](C)O)c(C)n1 [Compound I-197] | 8.55 | 7.18
COCc1nc(C)c(-c2cc(Nc3ncc(C(F)(F)F)cc3F)ncc2OCCO)c(C)n1 [Compound I-199] | 8.22 | 8.22
COCc1nc(C)c(-c2cc(Nc3ncc(C(F)(F)F)cc3Cl)ncc2OCCO)c(C)n1 [Compound I-201] | 8.65 | 8.60
Cc1ncnc(C)c1-c1cc(Nc2ncc(C(F)(F)F)cc2Cl)ncc1OCCO [Compound I-202] | 9.08 | 8.04
Cc1nc(COC(F)F)nc(C)c1-c1cc(Nc2ncc(C(F)(F)F)cc2Cl)ncc1OCCO [Compound I-203] | 8.71 | 8.74
Cc1nc(COC(C)C)nc(C)c1-c1cc(Nc2ncc(C(F)(F)F)cc2Cl)ncc1OCCO [Compound I-204] | 8.63 | 8.57
COCCOCc1nc(C)c(-c2cc(Nc3ncc(C(F)(F)F)cc3Cl)ncc2OCCO)c(C)n1 [Compound I-205] | 8.53 | 9.12
Cc1nc(C2CC2)nc(C)c1-c1cc(Nc2ncc(C(F)(F)F)cc2Cl)ncc1OCCO [Compound I-206] | 8.89 | 8.75

Results, then the molecule that gave them:

pKi [1] | pKi [2] | Compound
8.65 | 8.22 | Cc1nc(C2COC2)nc(C)c1-c1cc(Nc2ncc(C(F)(F)F)cc2Cl)ncc1OCCO [Compound I-207]
8.99 | 8.78 | Cc1nc(C2CCC2)nc(C)c1-c1cc(Nc2ncc(C(F)(F)F)cc2Cl)ncc1OCCO [Compound I-208]
8.77 | 8.25 | Cc1nc(N2CCCC2)nc(C)c1-c1cc(Nc2ncc(C(F)(F)F)cc2Cl)ncc1OCCO [Compound I-209]
9.09 | 8.44 | COc1nc(C)c(-c2cc(Nc3ncc(C(F)(F)F)cc3Cl)ncc2OCCO)c(C)n1 [Compound I-210]
9.15 | 8.72 | Cc1nc(OCC(F)F)nc(C)c1-c1cc(Nc2ncc(C(F)(F)F)cc2Cl)ncc1OCCO [Compound I-211]
8.91 | 8.41 | Cc1nc(OC2CC2)nc(C)c1-c1cc(Nc2ncc(C(F)(F)F)cc2Cl)ncc1OCCO [Compound I-212]
8.90 | 8.39 | COCCOc1nc(C)c(-c2cc(Nc3ncc(C(F)(F)F)cc3Cl)ncc2OCCO)c(C)n1 [Compound I-213]
8.35 | 8.02 | Cc1nc(N2CCCC2=O)nc(C)c1-c1cc(Nc2ncc(C(F)(F)F)cc2Cl)ncc1OCCO [Compound I-215]
8.76 | 8.58 | COCCc1nc(C)c(-c2cc(Nc3ncc(C(F)(F)F)cc3Cl)ncc2OCCO)c(C)n1 [Compound I-217]
8.91 | 8.47 | COCC(F)(F)COc1nc(C)c(-c2cc(Nc3ncc(C(F)(F)F)cc3Cl)ncc2OCCO)c(C)n1 [Compound I-218]
8.90 | 8.20 | Cc1nc(OCC2COC2)nc(C)c1-c1cc(Nc2ncc(C(F)(F)F)cc2Cl)ncc1OCCO [Compound I-219]
8.86 | 8.23 | Cc1nc(OC2COC2)nc(C)c1-c1cc(Nc2ncc(C(F)(F)F)cc2Cl)ncc1OCCO [Compound I-220]
9.00 | 8.65 | CCc1nc(C)c(-c2cc(Nc3ncc(C(F)(F)F)cc3Cl)ncc2OCCO)c(C)n1 [Compound I-221]
8.87 | 8.72 | CCCc1nc(C)c(-c2cc(Nc3ncc(C(F)(F)F)cc3Cl)ncc2OCCO)c(C)n1 [Compound I-222]
9.06 | 8.04 | Cc1nc(C(F)F)nc(C)c1-c1cc(Nc2ncc(C(F)(F)F)cc2Cl)ncc1OCCO [Compound I-223]
